No end group written: not given here.
How the values were obtained:
[1] = system: synovial membrane-derived mesenchymal stem cells; test: Chondrogenic differentiation, extracellular matrix deposition by alcian blue staining; type: cell-based
Source text: Influence of TDFRP compounds (SEQ ID NO 16, 33, 45, 217, 221) on chondrogenic differentiation of synovial membrane-derived mesenchymal stem cells leading to increased extracellular matrix deposition as determined by alcian blue staining. TDFRP compounds, SEQ ID NO:16, 33, 45, 217, and 221 correspond to Compounds E, A, C, B, and D, respectively.
TDFRP compounds can be used to in the prophylaxis or treatment of diseases of the oral cavity, e.g., by affecting direct capping of bioactive molecules, or inducing the formation of reparative dentin and coronal or radicular pulp mineralization (Goldberg et al., Am J. Dent. 2003 February; 16(1):66-76). Further, TDFRP can be used in the prophylaxis or treatment of periodontal disease. […] TDFRP compounds can be used in the prophylaxis or treatment of traumatic brain injury, e.g., stroke, see, e.g., Cairns and Finkelstein, Phys Med Rehabil Clin N Am. 2003 February; 14(1 Suppl):S135-42). Intravenous administration of BMP-7 after ischemia improves motor function in stroke rats (Chang et al., Stroke. 2003 February; 34(2):558-64) and the TDFRP compounds may protect against or repair reperfusion injury. […] Thrasos compounds that bind to ALK3, a type I receptor for BMP, are therefore analyzed to examine if they induce chondrogenic differentiation leading to extra cellular matrix deposition in synovial membrane-derived mesenchymal stem cells. […]

[2] = system: vascular endothelial cells; test: Smad 1, 5 phosphorylation in vascular endothelial cells (Western blot); type: cell-based; settings: added to vascular endothelial cells in culture
Experimental: Phosphorylation and nuclear translocation of Smads occurs following the activation of Type I and Type II receptors and subsequent signal transduction to intracellular Smad targets. Phosphorylation and nuclear translocation of R-Smad in HK-2, vascular endothelial, human prostate or other cells by TDFRP compounds is assayed by immuno-fluorescent microscopy methods, using anti-phospho Smad 1/5 antibodies according to the procedure of H Aoki, M Fujii, T Imamura, K Yagi, K Takehara, M Kato and K Miyazono. J. of Cell Sci. 114, 1483-1489, 2001) and by Western blot analysis (FIGS. 2, 3, 18, 2X).
The detection of Smad phosphorylation by Western analysis, for example in LNCaP (prostate cancer cells) or EC (vascular endothelial cells) in culture medium can be examined after exposure to varying concentrations of TDFRP or control compounds. BMP-7 serves as a positive control. Cells are lysed in RIPA lysis buffer (50 mM Tris-HCl at pH 8.0, 150 mM NaCl, 1% NP-40, 0.5% sodium deoxycholate, 0.1% SDS) containing 1 mM PMSF, 1 mM sodium orthovanadate, and 10 ug/mL proteinase inhibitor cocktail. Lysates are incubated on ice for 15 minutes, centrifuged, and transferred supernatant to a clean tube. 50 to 100 ug is used for analysis by SDS-PAGE. Resolved proteins are electro transferred onto PVDF membrane. The blot is blocked by incubating in 3% non-fat dry milk prepared in PBS at room temperature for 1 hour with constant slow agitation. The blot is incubated with 1-2 ug/mL of primary antibody (rabbit anti-phospho-Smad 1) prepared in PBS-milk, overnight with agitation at 4 degree C., washed twice with PBS, and incubated with secondary antibody (anti rabbit HRP conjugated IgG, 1:3000 dilution) at room temperature for 2 hours with agitation. After washing in PBS-0.05% Tween 20 for 5 minutes and rinsing, Smad phosphorylation is detected via an HRP reaction according to manufacturer's instructions (FIGS. 2, 3, 18, 2X).
Phosphorylation and nuclear translocation of Smads occurs following the activation of Type I and Type II receptors and subsequent signal transduction to intracellular Smad targets. Phosphorylation and nuclear translocation of R-Smad in HK-2 cells by TDFRP compounds is assayed by immuno-fluorescent microscopy methods, using anti-phospho Smad 1/5 antibodies according to the procedure of H Aoki, M Fujii, T Imamura, K Yagi, K Takehara, M Kato and K Miyazono. J. of Cell Sci. 114, 1483-1489, 2001) and by Western blot analysis in various cell types (FIGS. 2, 3, 18, 27).
For detection of Smad phosphorylation by Western analysis, LNCaP (prostate cancer cells) or EC (vascular endothelial cells) in culture medium are exposed to varying concentrations of TDFRP or control compounds. BMP-7 served as a positive control. Cells are lysed in RIPA lysis buffer (50 mM Tris-HCl at pH 8.0, 150 mM NaCl, 1% NP-40, 0.5% sodium deoxycholate, 0.1% SDS) containing 1 mM PMSF, 1 mM sodium orthovanadate, and 10 ug/mL proteinase inhibitor cocktail. Lysates are incubated on ice for 15 minutes, centrifuged, and transferred supernatant to a clean tube. 50 to 100 ug is used for analysis by
SDS-PAGE. Resolved proteins are electro transferred onto PVDF membrane. The blot is blocked by incubating in 3% non-fat dry milk prepared in PBS at room temperature for 1 hour with constant slow agitation. The blot is incubated with 1-2 ug/mL of primary antibody (rabbit anti-phospho-Smad 1) prepared in PBS-milk, overnight with agitation at 4 degree C., washed twice with PBS, and incubated with secondary antibody (anti rabbit HRP conjugated IgG, 1:3000 dilution) at room temperature for 2 hours with agitation. After washing in PBS-0.05% Tween 20 for 5 minutes and rinsing, Smad phosphorylation is detected via an HRP reaction according to manufacturer's instructions (FIGS. 3, 27).

[3] = system: rat osteosarcoma (17/2.8) cells; test: Rat osteosarcoma (ROS) cell-based alkaline phosphatase assay; settings: 0.02-200 uM, 2 days, relative to BMP-7 standard
Experimental: BMP interactions with Type I and Type II receptors can induce alkaline phosphatase activity, a marker for osteoblast activity, in ROS cells. An assay procedure as described in Maliakal, J. C., Asahina, I., Hauschka, P. V., and Sampath, T. K. (1994) Growth factors 11, 227-234, was used to determine the biological activities of TDFRP compounds. In a typical experiment, rat osteosarcoma (17/2.8) cells are plated in 96 well plates (3.0×10^4 cells/well) and incubated overnight at 37 C in 5-6% CO2 incubator. The next day, healthy and confluent cells are treated with increasing concentrations of BMP-7 standard (1-10,000 ng/ml) served as positive control or TDFRP compounds (0.02-200 uM) prepared in medium containing 1% FBS and incubated for 2 days at 37 C in 5-6% CO2 incubator. The cellular content of alkaline phosphatase activity is determined by the method of Reddi and Huggins (Reddi, A. H., and Huggins, C. B (1972) Proc. Natl. Acad. Sci. USA 69, 1601-1605). Enzyme estimations are performed in 96 well plates. Following removal of culture medium, cells are washed with pre-warmed PBS (150 ul) and incubated in 100 ul of pre-warmed 1% Triton X-100 for 30 minutes at 37 C. Plates are centrifuged for 10 minutes at full speed, and recovered samples (15 ul) are assayed for enzyme activity by adding 90 ul p-nitrophenyl phosphate (Sigma) as a substrate in 0.05 M glycine-NaOH buffer, pH 9.3 and incubating for 20 minutes at 37 C. The reaction is stopped by adding 75 ul of 0.2 N NaOH/well and absorbance at 405/490 nm is measured on a Dynatech MR 700 plate reader. Results are expressed as relative activities compared to a BMP-7 standard.
BMP interactions with Type I and Type II receptors can induce alkaline phosphatase activity, a marker for osteoblast activity, in ROS cells. An assay procedure as described earlier (Maliakal, J. C., Asahina, I., Hauschka, P. V., and Sampath, T. K. (1994) Growth factors 11, 227-234) was used to determine the biological activities of TDFRP compounds. In a typical experiment, rat osteosarcoma (17/2.8) cells are plated in 96 well plates (3.0×10^4 cells/well) and incubated overnight at 37° C. in 5-6% CO2 incubator. […] The cellular content of alkaline phosphatase activity is determined by the method of Reddi and Huggins (Reddi, A. H., and Huggins, C. B (1972) Proc. Natl. Acad. Sci. USA 69, 1601-1605). […] The reaction is stopped by adding 75 ul of 0.2 N NaOH/well and absorbance at 405/490 nm is measured on a Dynatech MR 700 plate reader. Results are expressed as relative activities compared to a BMP-7 standard.

Row | Substance | deposition of the extracellular matrix [1] | phosphorylation and activation of intracellular Smad 1, 5 [2] | induction of alkaline phosphatase activity [3]
1 | CIVNSSDDFLCKKYRS [SEQ ID NO:16] | significantly increased | phosphorylation and activation of intracellular Smad 1, 5 | –
2 | CYFDDSSKVICKKYRS [SEQ ID NO:130] | – | – | did not induce
3 | CYFDDSSNVICKRYRS [SEQ ID NO:24] | – | phosphorylation and activation of intracellular Smad 1, 5 | –
4 | CYFDDSSNVLCKKYRS-NH2 (not fully specified (bridges); printed as CYFDDSSNVLCKKYRS-NH2; cysteine pairing not given here) [SEQ ID NO:33] | – | phosphorylation and activation of intracellular Smad 1, 5 | –
5 | CYFDDSSQVICKKYRS [SEQ ID NO:43] | – | phosphorylation and activation of intracellular Smad 1, 5 | –
6 | CYFDDSSQVLCKKYRS [SEQ ID NO:65] | – | – | did not induce
7 | CYFDDSSSVLCKKYRS [SEQ ID NO:209] | – | phosphorylation and activation of intracellular Smad 1, 5 | –
8 | CYFNDSSNCLLKKYRS [SEQ ID NO:229] | – | phosphorylation and activation of intracellular Smad 1, 5 | –
9 | CYFNDSSQVLCKRYRS [SEQ ID NO:221] | significantly increased | – | did not induce

Source: patent publication US8911953B2, “TDF-related compounds and analogs thereof, analogs and bioactive fragments” (Thrasos Innovation, Inc., priority 2005, dated 2014)
